Laboratory results reported in US20210369691A1, “METHODS AND COMPOSITIONS FOR IMPROVING BONE MARROW HEMATOPOIETIC FUNCTIONS” (Sun Yat-Sen University, priority 2018, published 2021).

How the values were obtained:
white blood cells = test: White blood cell recovery in peripheral blood after X-ray radiation; format: in vivo, mice; conditions: after X-ray 450 cGy; ABC294640 10 mg/kg i.p. every other day; days 0, 1, 7, 14; vs solvent control; FIG. 7
Experimental: Preparation of SphK2 inhibitors was as described in Example 4. Twelve 8-week-old C57 mice purchased from Laboratory Animal Center, Sun Yat-sen University were selected and divided evenly into two groups. The mice were treated with X-ray radiation at a dose of 450 cGy. The injection of the inhibitor ABC294640 and the solvent control solution was as described in Example 4. Intraperitoneal injection of the inhibitor or the solvent control solution started from the day after the X-ray radiation, followed by injections once every other day, at a dose of 10 mg/kg, until the end of the experiment. Periphery blood (PB) of each mouse was separately collected to determine white blood cell (WBC) counts 0, 1, 7 and 14 days after X-ray radiation. T-test analysis was carried out using Graphpad6.0, and differences were considered statistically significant when P<0.05.

platelets = test: Platelet recovery after bone marrow transplantation; format: in vivo, mice; conditions: 7-35 days after bone marrow transplantation; ABC294640 10 mg/kg every other day; vs solvent control
Experimental: (§1) Twenty-five 8-week-old C57 mice (purchased from Laboratory Animal Center, Sun Yat-sen University) were selected and kept in a specific pathogen free (SPF) environment. 5 mice were randomly selected and sacrificed by cervical dislocation. Femurs and tibias were taken and the bone marrow was obtained from the bone marrow cavity with an 1 ml syringe. Bone marrow was dispersed to form a single cell suspension and lysed with red blood cell lysis buffer for 2 min to remove red blood cells, followed by filtering through a 70 μm filter screen to obtain a single cell suspension. The other 20 mice were treated with X-ray radiation at a dose of 900 cGy, and were injected with 400,000 of the prepared bone marrow single cell suspension via tail vein, respectively. Then, the recipient mice were divided evenly into 2 groups, and mice of the ABC294640 treatment group were subjected to intraperitoneal injection of ABC294640 every other day. Mice in the control group was injected with a solvent solution control (1:1 of physiological saline: PEG400) solution. ABC294640 was purchased from Selleck and dissolved in dimethyl sulfoxide (DMSO), and diluted with a mixture solution of polyethylene glycol 400 (PEG400) and physiological saline (1:1) to be administered at a dose of 10 mg/kg.
Preparation of SphK2 inhibitors was as described in Example 10. […]

hematopoietic stem cells [1] = test: Hematopoietic stem cell number after bone marrow transplantation; format: in vivo, mice; conditions: 35 days after bone marrow transplantation (900 cGy); ABC294640 10 mg/kg i.p. every other day; **P<0.01; FIG. 10
Experimental: as §1, with “solution. […] Statistical quantification” for “solution. ABC294640”, “was performed to determine the number of hematopoietic stem cells using the molecular marker system Lin-Sca-1+c-Kit+CD150+CD48−” for “was purchased from Selleck and dissolved”, “in combination” for “in dimethyl sulfoxide (DMSO), and diluted”, “with flow cytometry. […]” for “with a mixture solution of polyethylene glycol 400 (PEG400) and physiological saline (1:1) to be administered at a dose of 10 mg/kg.”

hematopoietic stem cells [2] = test: Hematopoietic stem cell number and cell cycle in uninjured mice after ABC294640 treatment; format: in vivo; conditions: vs solvent control
Excerpt: FIG. 27. illustrates the absolute number of HSPCs (LT-HSC, ST-HSC, MPP and CD150HSC) in the bone marrow (a) and cell cycle analysis of CD150 HSCs (b) in bone marrow from C57BL/6J mice after ABC294640 or solvent control treatment (n=5 mice). Data represent mean±s.d. Two-tailed Student's t-tests were used to assess statistical significance. *P<0.05, **P<0.01, ***P<0.001. To analyze whether Sphk2 inhibitor is effective in expanding hematopoietic stem cell number and enhance their function. Twenty 8-week-old C57 mice (purchased from Laboratory Animal Center, Sun Yat-sen University) were selected for the experiment. The mice were divided evenly into an inhibitor treatment group and a control group. The mice were injected intraperitoneally with ABC294640 (inhibitor treatment group) or solvent control (1:1 physiological saline: PEG400) solution (control group) every other day. 14 days after the first injection, bone marrow cells were harvested from both groups, and were analyzed for the number of hematopoietic stem cells, with methods and analysis as described in Example 1. To evaluate the hematopoietic function of the hematopoietic stem cells, 2×10^5 bone marrow cells from Sphk2 inhibitor or solvent control treated mice were transplanted into irradiated recipients (as described in Example 13). Peripheral blood was collected from the tail vein every 4 weeks after transplantation. The hematopoietic repopulation function was examined from donor-derived blood cells. The Sphk2 inhibitor was prepared as described in Example 4. Briefly, ABC294640 was purchased from Selleck and dissolved in dimethyl sulfoxide (DMSO), which was finally diluted with a mixture solution of polyethylene glycol 400 (PEG400) and physiological saline (1:1) to be administered at a dose of 10 mg/kg. T-test analysis was carried out using Graphpad6.0, and differences were considered statistically significant when *P<0.05, **P<0.01 and ***P<0.001.

In the case of `O=C(NCc1ccncc1)C12CC3CC(C1)CC(c1ccc(Cl)cc1)(C3)C2` [ABC294640, 3-(4-chloro-phenyl)-adamantane-1-carboxylic acid (pyridin-4-ylmethyl)-amide], the “number of white blood cells from the peripheral blood” value (white blood cells) is reported as “significantly increased”, the “number of platelets in the peripheral blood” value (platelets) is reported as “significantly (*P<0.05, and ***P<0.001) increased” and the “number of hematopoietic stem cells in bone marrow” value (hematopoietic stem cells [1]) is reported as “increased remarkably”. For the same compound, the “increase of number of hematopoietic stem cells” value (hematopoietic stem cells [2]; ABC294640 10 mg/kg i.p. every other day, 14 days after first injection, FIG. 14 panel b) was 1.7 fold, the “increase of CD150 HSCs (expanded HSC pool)” value (hematopoietic stem cells [2]; FIG. 27) was 1.7 fold and the “increase of LT-HSCs (expanded HSC pool)” value (hematopoietic stem cells [2]; FIG. 27) was 2.1 fold. For the same compound, the “quiescence of HSCs (cell cycle analysis of CD150 HSCs)” value (hematopoietic stem cells [2]; FIG. 27) was “increased quiescence”.
